Data published in patent US5324648A, “Substituted isocoumarins as serine protease inhibitors and anti-inflammatory agents” (Georgia Tech Research Corporation, priority 1992, dated 1994).
Like-named read-outs stand apart in the source and are kept apart here.

Assays:
bovine thrombin = target: T1, bovine thrombin (Bos taurus, UniProt P00735); test: Inactivation rate of bovine thrombin; format: biochemical; details: pH 7.5, 25° C, read-out: kobs/[I]
T1 construct: bovine thrombin
Procedure: (§1) Inactivation rates of serine proteases by substituted isocoumarins were measured by the incubation method. An aliquot of inhibitor (25 or 50 μl) in Me2 SO was added to a buffered enzyme solution (0.01-2.3 μM) to initiate the inactivation. Aliquots (50 μl) were withdrawn at various intervals and the residual enzymatic activity was measured. Me2 SO concentration in the reaction mixture was 8-12% (v/v). 0.1 Hepes, 0.01M CaCl2, pH 7.5 buffer was utilized for trypsin and coagulation enzymes. 0.1M Hepes, 0.5M NaCl, pH 7.5 was utilized for other serine proteases. The inhibitor concentrations are shown in all the tables. Peptide thioesters or peptide nitroanilides with appropriate sequence were used as substrates for various serine proteases. All peptide thioester hydrolysis rates were measured with assay mixtures containing 4,4'-dithiodipyridine (ε324 =19800M^-1 cm^-1; Grasetti & Murray, Arch. Biochem. Biophys. 119, pp 41-49 (1967)). Peptide 4-nitroanilide nitroanilide hydrolysis was measured at 410 nm (ε410 =8800M^-1 cm^-1; Erlanger et al., Arch. Biochem. Biophys. 95, pp 271-278 (1961)). First order inactivation rate constant (kobs) were obtained from plots of ln (vt /vo) vs time, and the correlation coefficients were greater than 0.98.
(§2) ^a Conditions were as 0.1M Hepes, 0.01M CaCl2, pH 7.5 and 8-12%
(§3) Me2 SO and 25° C. Rate constants were measured by incubation
(§4) method unless otherwise noted. An aliquot of inhibitor was added to an
(§5) enzyme solution and aliquots removed with time and assayed for remaining
(§6) enzymatic activity. Firstorder rate constants, kobs were obtained
(§7) from the plots of ln(vt /vo) versus time.
(§8) ^a Inhibition rates were measured in 0.1M Hepes, 0.01M CaCl2, pH
(§9) 7.5 buffer, 8% Me2 SO and at 25° C.

bovine factor Xa = target: T2, bovine factor Xa (Bos taurus, UniProt P00743); test: Inactivation rate of bovine factor Xa; format: biochemical; details: Table I; pH 7.5, 25° C; [I] 0.4 to 310 μM; read-out: kobs/[I]
T2 construct: bovine factor Xa
T2 sequence (P00743 234-492 limits assumed): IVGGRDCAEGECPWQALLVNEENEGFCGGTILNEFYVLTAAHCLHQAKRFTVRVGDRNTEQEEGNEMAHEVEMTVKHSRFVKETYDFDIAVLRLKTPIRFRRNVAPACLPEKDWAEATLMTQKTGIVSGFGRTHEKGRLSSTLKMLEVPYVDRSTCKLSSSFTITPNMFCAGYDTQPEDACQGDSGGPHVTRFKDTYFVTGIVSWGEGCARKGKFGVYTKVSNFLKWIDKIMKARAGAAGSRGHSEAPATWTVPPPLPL
T2 sequence (P00743 41-180 partner limits assumed): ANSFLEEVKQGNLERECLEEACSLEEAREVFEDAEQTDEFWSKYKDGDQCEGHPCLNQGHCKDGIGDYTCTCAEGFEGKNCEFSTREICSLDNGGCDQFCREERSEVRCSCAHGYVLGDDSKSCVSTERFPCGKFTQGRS

[1] = target: T3, porcine pancreatic kallikrein (Sus scrofa, UniProt P00752); test: Inactivation rate of porcine pancreatic kallikrein; format: biochemical; details: Table I; pH 7.5, 25° C; [I] 0.4 to 300 μM; read-out: kobs/[I]
T3 construct: from tissue; host or cells: porcine pancreas (from the name)
T3 sequence (P00752 8-246): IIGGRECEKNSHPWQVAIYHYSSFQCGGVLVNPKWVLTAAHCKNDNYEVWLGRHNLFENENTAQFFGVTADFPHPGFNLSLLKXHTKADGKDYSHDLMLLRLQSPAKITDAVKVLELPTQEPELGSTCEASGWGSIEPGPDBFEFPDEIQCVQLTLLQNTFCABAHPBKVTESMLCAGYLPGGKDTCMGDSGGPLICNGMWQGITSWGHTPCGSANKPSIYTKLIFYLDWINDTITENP

human plasma kallikrein = target: T4, human plasma kallikrein (Homo sapiens, UniProt P03952); test: Inactivation rate of human plasma kallikrein; format: biochemical; details: Table I; pH 7.5, 25° C; [I] 3 to 330 μM (footnote g); read-out: kobs/[I]
T4 construct: human plasma kallikrein; from tissue; host or cells: human plasma (from the name)
T4 sequence (P03952 391-638 limits assumed): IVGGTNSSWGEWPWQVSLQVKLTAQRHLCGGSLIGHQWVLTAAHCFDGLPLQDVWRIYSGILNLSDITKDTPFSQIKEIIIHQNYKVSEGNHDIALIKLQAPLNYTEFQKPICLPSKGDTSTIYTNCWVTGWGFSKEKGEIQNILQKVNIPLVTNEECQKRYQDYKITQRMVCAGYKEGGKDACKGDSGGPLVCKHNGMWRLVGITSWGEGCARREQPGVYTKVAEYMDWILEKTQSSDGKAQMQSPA
T4 sequence (P03952 20-390 partner limits assumed): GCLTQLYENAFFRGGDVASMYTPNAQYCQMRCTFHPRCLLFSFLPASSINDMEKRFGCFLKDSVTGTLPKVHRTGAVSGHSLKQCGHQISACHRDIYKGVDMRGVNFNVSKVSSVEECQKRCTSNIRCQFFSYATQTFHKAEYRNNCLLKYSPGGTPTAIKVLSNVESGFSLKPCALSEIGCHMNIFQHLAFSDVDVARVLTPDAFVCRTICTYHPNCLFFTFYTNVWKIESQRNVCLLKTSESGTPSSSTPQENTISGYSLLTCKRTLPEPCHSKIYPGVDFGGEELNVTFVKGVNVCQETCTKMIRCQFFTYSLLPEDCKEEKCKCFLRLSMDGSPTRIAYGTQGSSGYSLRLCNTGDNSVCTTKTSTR
Procedure: as §1, §2, §3, §4, §5, §6, §7

human factor XIa = target: T5, human factor XIa (Homo sapiens, UniProt P03951); test: Inactivation rate of human factor XIa; format: biochemical; details: Table I; pH 7.5, 25° C; [I] 3 to 330 μM; read-out: kobs/[I]
T5 construct: human factor XIa
T5 sequence (P03951 388-625 limits assumed): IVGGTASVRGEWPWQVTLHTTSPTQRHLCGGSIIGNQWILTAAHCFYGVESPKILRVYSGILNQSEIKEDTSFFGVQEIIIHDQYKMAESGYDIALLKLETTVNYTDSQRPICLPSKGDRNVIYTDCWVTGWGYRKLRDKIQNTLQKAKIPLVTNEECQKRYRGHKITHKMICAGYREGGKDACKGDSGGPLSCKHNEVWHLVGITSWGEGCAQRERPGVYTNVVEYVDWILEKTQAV
T5 sequence (P03951 19-387 partner limits assumed): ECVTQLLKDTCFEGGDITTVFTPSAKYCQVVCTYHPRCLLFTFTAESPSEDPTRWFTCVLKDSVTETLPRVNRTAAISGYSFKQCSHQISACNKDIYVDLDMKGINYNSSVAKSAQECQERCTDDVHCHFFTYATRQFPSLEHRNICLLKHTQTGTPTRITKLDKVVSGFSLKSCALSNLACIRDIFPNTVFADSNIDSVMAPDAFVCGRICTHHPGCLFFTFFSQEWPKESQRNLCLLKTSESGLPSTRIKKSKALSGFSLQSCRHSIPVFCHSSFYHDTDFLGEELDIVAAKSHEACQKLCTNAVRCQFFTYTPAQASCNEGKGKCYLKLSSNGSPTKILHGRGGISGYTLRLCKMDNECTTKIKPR
Procedure: as §1, §2, §3, §4, §5, §6, §7, §8, §9

human factor XIIa = target: T6, human factor XIIa (Homo sapiens, UniProt P00748); test: Inactivation rate of human factor XIIa; format: biochemical; details: pH 7.5, 25° C, read-out: kobs/[I]
T6 construct: human factor XIIa
T6 sequence (P00748 373-615 limits assumed): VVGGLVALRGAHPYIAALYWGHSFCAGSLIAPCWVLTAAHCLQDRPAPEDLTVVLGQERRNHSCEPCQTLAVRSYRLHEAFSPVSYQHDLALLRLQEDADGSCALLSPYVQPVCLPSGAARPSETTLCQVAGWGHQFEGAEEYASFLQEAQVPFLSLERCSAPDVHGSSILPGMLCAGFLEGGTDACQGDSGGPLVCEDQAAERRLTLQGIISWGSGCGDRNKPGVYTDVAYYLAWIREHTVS
T6 sequence (P00748 20-372 partner limits assumed): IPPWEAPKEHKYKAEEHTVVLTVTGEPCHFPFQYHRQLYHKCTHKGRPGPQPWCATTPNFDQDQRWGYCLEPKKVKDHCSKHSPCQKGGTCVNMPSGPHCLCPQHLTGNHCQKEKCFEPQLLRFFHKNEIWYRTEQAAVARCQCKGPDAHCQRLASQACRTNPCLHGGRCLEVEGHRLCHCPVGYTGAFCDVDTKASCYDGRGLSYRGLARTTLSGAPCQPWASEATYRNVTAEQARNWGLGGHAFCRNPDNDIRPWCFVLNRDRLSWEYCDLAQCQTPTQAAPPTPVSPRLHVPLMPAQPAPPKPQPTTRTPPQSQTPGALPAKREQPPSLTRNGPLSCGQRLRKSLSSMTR
Procedure: as §1, §2, §3, §4, §5, §6, §7, §8, §9

bovine trypsin = target: T7, bovine trypsin (Bos taurus, UniProt P00760); test: Inactivation rate of bovine trypsin; format: biochemical; details: Table I; pH 7.5, 25° C; [I] 1 to 12 μM; read-out: kobs/[I]
T7 sequence (P00760 24-246): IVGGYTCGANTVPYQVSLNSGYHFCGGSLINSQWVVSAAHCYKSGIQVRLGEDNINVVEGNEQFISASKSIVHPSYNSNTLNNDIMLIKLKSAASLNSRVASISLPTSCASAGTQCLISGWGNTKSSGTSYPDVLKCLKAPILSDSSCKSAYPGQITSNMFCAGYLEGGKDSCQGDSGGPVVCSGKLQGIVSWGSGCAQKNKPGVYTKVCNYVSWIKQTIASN
Procedure: as §1, §2, §3, §4, §5, §6, §7, §8, §9

[2] = target: sheep lung lymph tryptase; test: Inactivation rate of sheep lung lymph tryptase; format: biochemical; details: Table III; pH 7.5, 25° C; [I] 10 to 460 μM
Procedure: Inactivation rates of serine proteases by substituted isocoumarins were measured by the incubation method. An aliquot of inhibitor (25 or 50 μl) in Me2 SO was added to a buffered enzyme solution (0.01-2.3 μM) to initiate the inactivation. Aliquots (50 μl) were withdrawn at various intervals and the residual enzymatic activity was measured. […] 0.1 Hepes, 0.01M CaCl2, pH 7.5 buffer was utilized for trypsin and coagulation enzymes. […] The inhibitor concentrations are shown in all the tables. Peptide thioesters or peptide nitroanilides with appropriate sequence were used as substrates for various serine proteases.
(§10) ^a Inactivation rates were measured at 0.1M Hepes, 0.5M NaCl, pH 7.5
(§11) buffer, 8% Me2 SO and 25° C.

[3] = target: T8, human leukocyte elastase (HLE) (Homo sapiens, UniProt P08246); test: Inactivation of human leukocyte elastase (HLE); format: biochemical; details: Table IV; pH 7.5, 25° C; [I] 0.001 to 0.18 mM; read-out: kobs/[I]
T8 construct: from tissue; host or cells: human leukocytes (from the name)
T8 sequence (P08246 30-267): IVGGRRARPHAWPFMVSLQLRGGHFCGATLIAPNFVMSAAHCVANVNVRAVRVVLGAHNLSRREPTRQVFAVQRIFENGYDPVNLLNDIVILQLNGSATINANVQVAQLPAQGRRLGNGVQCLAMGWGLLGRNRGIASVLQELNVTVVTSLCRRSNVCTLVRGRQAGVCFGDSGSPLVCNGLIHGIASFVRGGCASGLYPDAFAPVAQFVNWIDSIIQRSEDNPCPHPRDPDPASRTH

chymotrypsin = chymotrypsin (Bos taurus, UniProt P00766); test: Inactivation of chymotrypsin; format: biochemical, bovine; details: pH 7.5, 25° C, read-out: kobs/[I]
cathepsin G = target: T9, cathepsin G (Homo sapiens, UniProt P08311); test: Inactivation of cathepsin G; format: biochemical
T9 construct: from tissue; host or cells: human leukocytes
T9 sequence (P08311 21-255): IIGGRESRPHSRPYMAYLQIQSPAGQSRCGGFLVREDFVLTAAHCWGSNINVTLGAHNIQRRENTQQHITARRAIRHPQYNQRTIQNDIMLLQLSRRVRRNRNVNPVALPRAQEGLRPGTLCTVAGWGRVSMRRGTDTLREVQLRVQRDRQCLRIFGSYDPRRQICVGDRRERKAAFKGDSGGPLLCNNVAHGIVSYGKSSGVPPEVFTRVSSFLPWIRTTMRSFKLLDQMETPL

[4] = Spontaneous hydrolysis in Hepes buffer; format: physicochemical; details: hepes buffer; 0.1 Hepes, 0.5M NaCl, pH 7.5, 9% Me2SO, 25° C; read-out: t1/2 for spontaneous hydrolysis
Procedure: ^a Conditions were 0.1 Hepes, 0.5M NaCl, pH 7.5 and 9% Me2 SO at
25° C. Spontaneous hydrolysis rates were measured
spectrophotometrically by monitoring the decrease in absorbance due to th
isocoumarin ring system (wavelength 335-380 nm) using the firstorder rate

human factor Xa = target: T10, human factor Xa (Homo sapiens, UniProt P00742); test: Inactivation rate of human factor Xa; format: biochemical; details: Table VIII; pH 7.5, 25° C; [I] 3.6-44 μM; read-out: kobs/[I]
T10 construct: human factor Xa
T10 sequence (P00742 235-488 limits assumed): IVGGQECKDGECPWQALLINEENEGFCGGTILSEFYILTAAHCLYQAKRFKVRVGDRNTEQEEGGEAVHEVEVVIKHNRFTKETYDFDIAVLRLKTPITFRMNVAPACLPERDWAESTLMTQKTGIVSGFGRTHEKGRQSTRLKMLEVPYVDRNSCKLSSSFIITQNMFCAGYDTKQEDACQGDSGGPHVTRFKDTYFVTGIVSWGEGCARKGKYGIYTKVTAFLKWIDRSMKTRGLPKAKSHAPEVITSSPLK
T10 sequence (P00742 41-179 partner limits assumed): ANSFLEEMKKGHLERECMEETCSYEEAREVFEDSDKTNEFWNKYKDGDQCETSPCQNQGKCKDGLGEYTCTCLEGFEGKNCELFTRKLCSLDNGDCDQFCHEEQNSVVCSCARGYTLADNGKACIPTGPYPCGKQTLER
Procedure: as §1, §2, §3, §4, §5, §6, §7, §8, §9

human thrombin = target: T11, human thrombin (Homo sapiens, UniProt P00734); test: Inactivation rate of human thrombin; format: biochemical; details: Table VIII; pH 7.5, 25° C; [I] 1.2-54 μM; read-out: kobs/[I]
T11 construct: human thrombin
Procedure: as §1, §8, §9

human lung tryptase = test: Inactivation rate of human lung tryptase; format: biochemical; details: Table IX; pH 7.5, 25° C; [I] 0.42-0.47 μM
Procedure: as §1, §10, §11, §8
(§12) 7.5 buffer for human plasmin; 25 mM Phosphate, 0.5M NaCl, 1 mM EDTA, pH
(§13) 7.5 buffer for rat skin tryptase and 0.1M Hepes, 0.5M NaCl, pH 7.5 for
(§14) human lung tryptase, human skin tryptase and rt-PA. All enzymes were
(§15) assayed with ZArg-SBzl (0.07 mM) in the presence of 4,4dithiodipyridine
(§16) (0.33 mM). Reaction mixtures contained 8% Me2 SO and assays were […]

rat skin tryptase = target: T12, rat skin tryptase (Rattus norvegicus, UniProt P27435); test: Inactivation rate of rat skin tryptase; format: biochemical; details: pH 7.5, Table IX; pH 7.5, 25° C; [I] 0.42-0.51 μM; read-out: kobs/[I]
T12 construct: from tissue; host or cells: rat skin
T12 sequence (P27435 29-273): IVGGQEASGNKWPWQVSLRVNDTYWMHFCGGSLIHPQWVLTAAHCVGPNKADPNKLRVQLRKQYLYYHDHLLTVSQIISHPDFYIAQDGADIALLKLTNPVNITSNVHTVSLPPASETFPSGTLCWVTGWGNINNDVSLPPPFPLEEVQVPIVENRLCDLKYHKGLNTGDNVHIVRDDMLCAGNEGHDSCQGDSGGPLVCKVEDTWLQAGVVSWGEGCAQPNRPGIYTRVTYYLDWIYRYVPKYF
Procedure: as §1
^b Inactivation rates were measured at 25 mM phosphate, 0.5M NaCl, 1
mM EDTA, pH 7.5 buffer, 9% Me2 SO and 25° C.
as §8, §12, §13, §14, §15, §16

[5] = target: recombinant human tissue plasminogen activator (Homo sapiens, UniProt P00750); test: Inactivation rate of recombinant human tissue plasminogen activator; format: biochemical
Chain of recombinant human tissue plasminogen activator (P00750 36-562): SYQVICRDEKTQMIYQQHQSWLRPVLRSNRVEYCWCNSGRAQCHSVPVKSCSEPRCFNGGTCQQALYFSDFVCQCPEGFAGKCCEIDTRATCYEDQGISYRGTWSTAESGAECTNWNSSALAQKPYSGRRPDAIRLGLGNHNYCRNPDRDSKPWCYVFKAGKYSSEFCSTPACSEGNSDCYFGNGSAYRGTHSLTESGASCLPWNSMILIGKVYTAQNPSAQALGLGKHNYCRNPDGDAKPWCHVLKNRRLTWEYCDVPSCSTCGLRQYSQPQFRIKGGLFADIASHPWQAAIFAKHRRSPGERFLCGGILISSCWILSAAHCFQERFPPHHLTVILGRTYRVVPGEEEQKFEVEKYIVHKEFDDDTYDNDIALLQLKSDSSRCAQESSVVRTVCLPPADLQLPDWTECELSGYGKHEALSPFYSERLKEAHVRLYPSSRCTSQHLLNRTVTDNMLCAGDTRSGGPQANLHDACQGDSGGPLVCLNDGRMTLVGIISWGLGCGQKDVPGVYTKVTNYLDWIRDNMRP
Procedure: as §1
^a Inactivation constants were measured at 0.1M Hepes, 0.5M NaCl (or
as §8, §12, §13, §14, §15, §16

N=C(N)Nc1ccc2cc(OCCc3ccccc3)oc(=O)c2c1 [7-guanidino-3-(2-phenylethoxy)isocoumarin]
kinact/KI (bovine thrombin; Table I, [I] 0.3 to 400 μM): 5700 M⁻¹ s⁻¹
kinact/KI (bovine factor Xa): 11000 M⁻¹ s⁻¹
kinact/KI [1]: 16000 M⁻¹ s⁻¹
kinact/KI (human plasma kallikrein): 62000 M⁻¹ s⁻¹
kinact/KI (human factor XIa): 1200 M⁻¹ s⁻¹
kinact/KI (human factor XIIa; Table I, [I] 3 to 330 μM): 690 M⁻¹ s⁻¹
kinact/KI (bovine trypsin): 45000 M⁻¹ s⁻¹
kobs/[I] [2]: 150 M⁻¹ s⁻¹
kinact/KI [3]: 0.9 M⁻¹ s⁻¹
kinact/KI (chymotrypsin; Table IV, [I] 0.004 to 0.33 mM): 2600 M⁻¹ s⁻¹
inhibition at 530 µM (cathepsin G; Table IV, not time dependent, at 0.53 mM): 87%
half-life [4]: 2.33 h

N=C(N)SCCOc1oc(=O)c2cc(NC(=O)[C@@H](N)Cc3ccccc3)ccc2c1Cl [L-Phe--NH-CiTEtOIC, 7-(L-phenylalanylamino)-4-chloro-3-(2-isothiureidoethoxy)isocoumarin]
kinact/KI (bovine thrombin; Table VIII, [I] 1.2-54 μM): 1280 M⁻¹ s⁻¹
kinact/KI (human factor Xa): 3770 M⁻¹ s⁻¹
kinact/KI (human factor XIIa; Table VIII, [I] 3.6-4.9 μM): 107000 M⁻¹ s⁻¹
kinact/KI (human thrombin): 1340 M⁻¹ s⁻¹
kobs/[I] (human lung tryptase): 260,000 M^-1 s^-1
kinact/KI (rat skin tryptase): 650000 M⁻¹ s⁻¹
kinact/KI (chymotrypsin; Table X, [I] 0.9-43 μM): 8400 M⁻¹ s⁻¹
kinact/KI (cathepsin G; Table X, pH 7.5, 25° C, [I] 33-46 μM, read-out: kobs/[I]): 53 M⁻¹ s⁻¹
kinact/KI ([5]; pH 7.5, Table IX, pH 7.5, 25° C, [I] 3.5-5.0 μM, read-out: kobs/[I]): 13000 M⁻¹ s⁻¹

N=C(N)SCCOc1oc(=O)c2cc(NC(=O)Cc3ccccc3)ccc2c1Cl [PhCH2 CONH-CiTEtOIC, 7-(phenylacetylamino)-4-chloro-3-(2-isothiureidoethoxy)isocoumarin]
kinact/KI (bovine thrombin; Table VIII, [I] 1.2-54 μM): 15800 M⁻¹ s⁻¹
kinact/KI (human factor Xa): 3630 M⁻¹ s⁻¹
kinact/KI (human factor XIIa; Table VIII, [I] 3.6-4.9 μM): 59000 M⁻¹ s⁻¹
kinact/KI (human thrombin): 6730 M⁻¹ s⁻¹
kobs/[I] (human lung tryptase): 110,000 M^-1 s^-1
kinact/KI (rat skin tryptase): 120000 M⁻¹ s⁻¹
percentage of inhibition ([5]; Table IX, not time dependent, at 0.34-5.0 μM): 64%
